The supplement of paper PMC12076712

How the values were obtained:
Experiment in all cases: pIC50, kinobeads binding competition
DDR2 = target: T1, DDR2 (UniProt Q16832); settings: cell material: Lysate mix
T1 sequence (whole entry): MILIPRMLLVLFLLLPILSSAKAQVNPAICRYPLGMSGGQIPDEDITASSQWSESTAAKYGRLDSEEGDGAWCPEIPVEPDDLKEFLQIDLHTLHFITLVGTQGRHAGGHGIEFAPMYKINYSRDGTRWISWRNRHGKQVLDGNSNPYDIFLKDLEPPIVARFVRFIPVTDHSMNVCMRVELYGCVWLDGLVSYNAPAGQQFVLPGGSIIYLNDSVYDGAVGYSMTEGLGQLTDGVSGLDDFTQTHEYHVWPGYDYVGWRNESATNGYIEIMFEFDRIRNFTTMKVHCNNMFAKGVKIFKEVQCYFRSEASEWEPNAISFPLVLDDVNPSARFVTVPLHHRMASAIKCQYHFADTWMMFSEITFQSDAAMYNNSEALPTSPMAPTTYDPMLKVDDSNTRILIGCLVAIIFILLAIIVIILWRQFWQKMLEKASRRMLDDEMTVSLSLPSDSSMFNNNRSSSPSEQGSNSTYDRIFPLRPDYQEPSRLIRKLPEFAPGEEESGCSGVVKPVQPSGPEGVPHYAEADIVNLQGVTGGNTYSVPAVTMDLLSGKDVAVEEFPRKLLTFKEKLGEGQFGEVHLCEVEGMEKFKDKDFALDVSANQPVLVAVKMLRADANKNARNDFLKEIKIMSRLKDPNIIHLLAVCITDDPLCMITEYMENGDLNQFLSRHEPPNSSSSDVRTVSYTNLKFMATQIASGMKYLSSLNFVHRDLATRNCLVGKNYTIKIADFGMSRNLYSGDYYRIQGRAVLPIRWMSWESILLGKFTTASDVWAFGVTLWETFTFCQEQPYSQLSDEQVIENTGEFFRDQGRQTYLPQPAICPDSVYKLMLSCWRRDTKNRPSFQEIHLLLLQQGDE
In short: (§1)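 Nine compound concentrations were tested, starting at 30 μM in 1:4 steps on live Jurkat cells (60 min, 37 °C, then lysis) or in 1:5 steps on Jurkat lysate or a 1:1:1:1 HEK293/K-562/HepG2/placenta lysate mix (60 min, 4 °C). Kinobeads-bound proteins were digested and quantified with TMT10 LC-MS/MS. pIC50 values are from logistic dose-response fits in the R drc package of fold changes relative to vehicle, from biological duplicates.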

MAP4K3 = target: T2, MAP4K3 (UniProt Q8IVH8)
T2 sequence (whole entry): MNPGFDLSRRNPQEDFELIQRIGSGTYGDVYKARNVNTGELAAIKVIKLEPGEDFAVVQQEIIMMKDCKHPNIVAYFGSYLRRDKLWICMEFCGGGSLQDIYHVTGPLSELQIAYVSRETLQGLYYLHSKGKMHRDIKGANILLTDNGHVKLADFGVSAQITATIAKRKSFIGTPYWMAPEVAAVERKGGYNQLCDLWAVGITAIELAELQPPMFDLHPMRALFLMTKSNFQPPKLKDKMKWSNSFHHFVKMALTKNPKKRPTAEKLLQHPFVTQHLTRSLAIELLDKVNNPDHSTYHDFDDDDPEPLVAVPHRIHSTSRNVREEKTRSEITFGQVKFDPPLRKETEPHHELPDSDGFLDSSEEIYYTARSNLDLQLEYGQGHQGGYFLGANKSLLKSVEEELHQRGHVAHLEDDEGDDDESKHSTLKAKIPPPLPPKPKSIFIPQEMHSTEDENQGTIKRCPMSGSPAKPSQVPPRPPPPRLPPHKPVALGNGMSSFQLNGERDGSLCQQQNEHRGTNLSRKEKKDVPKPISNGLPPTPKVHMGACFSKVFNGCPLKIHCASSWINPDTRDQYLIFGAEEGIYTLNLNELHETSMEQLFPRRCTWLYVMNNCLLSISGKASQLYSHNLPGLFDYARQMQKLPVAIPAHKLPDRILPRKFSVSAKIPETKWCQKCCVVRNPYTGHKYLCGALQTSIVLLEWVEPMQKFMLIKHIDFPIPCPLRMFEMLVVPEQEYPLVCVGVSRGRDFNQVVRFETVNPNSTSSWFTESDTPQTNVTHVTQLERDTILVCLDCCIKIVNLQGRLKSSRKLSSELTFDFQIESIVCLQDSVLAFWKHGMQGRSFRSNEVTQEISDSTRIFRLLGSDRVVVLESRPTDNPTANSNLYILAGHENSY
In short: as §1

UniProt O15530 = target: T3, UniProt O15530
T3 sequence (whole entry): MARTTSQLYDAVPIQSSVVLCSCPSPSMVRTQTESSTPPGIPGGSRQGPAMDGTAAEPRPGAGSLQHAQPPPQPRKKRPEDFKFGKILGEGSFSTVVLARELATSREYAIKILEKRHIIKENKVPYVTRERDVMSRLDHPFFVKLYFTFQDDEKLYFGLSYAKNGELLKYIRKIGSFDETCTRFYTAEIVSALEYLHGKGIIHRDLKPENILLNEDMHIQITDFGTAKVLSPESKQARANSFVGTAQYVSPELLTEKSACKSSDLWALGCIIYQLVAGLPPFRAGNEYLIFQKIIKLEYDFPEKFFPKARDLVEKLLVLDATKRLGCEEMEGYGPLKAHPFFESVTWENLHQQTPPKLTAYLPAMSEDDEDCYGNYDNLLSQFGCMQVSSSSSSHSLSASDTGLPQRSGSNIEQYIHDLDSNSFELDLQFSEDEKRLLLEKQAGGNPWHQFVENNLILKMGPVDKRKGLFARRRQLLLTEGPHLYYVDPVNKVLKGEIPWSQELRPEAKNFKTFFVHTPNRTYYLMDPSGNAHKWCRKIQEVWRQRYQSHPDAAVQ
In short: as §1

UniProt Q9UEE5 = target: T4, UniProt Q9UEE5
T4 sequence (whole entry): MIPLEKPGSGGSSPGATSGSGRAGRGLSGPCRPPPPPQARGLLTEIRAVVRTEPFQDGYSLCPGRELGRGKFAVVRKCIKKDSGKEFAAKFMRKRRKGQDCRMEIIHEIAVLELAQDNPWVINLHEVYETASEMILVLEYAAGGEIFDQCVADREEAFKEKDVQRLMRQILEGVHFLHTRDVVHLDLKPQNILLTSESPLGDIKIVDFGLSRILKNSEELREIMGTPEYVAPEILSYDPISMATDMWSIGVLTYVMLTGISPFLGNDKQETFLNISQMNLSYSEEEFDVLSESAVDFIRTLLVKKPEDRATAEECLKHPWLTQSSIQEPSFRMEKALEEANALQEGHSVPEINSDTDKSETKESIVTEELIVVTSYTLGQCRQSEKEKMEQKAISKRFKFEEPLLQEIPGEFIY
In short: as §1

| Structure (SMILES) | pIC50 (DDR2) | pIC50 (MAP4K3; cell material: Lysate mix) | pIC50 (UniProt O15530; cell material: Lysate mix) | pIC50 (UniProt Q9UEE5; cell material: Lysate mix) | pIC50 (MAP4K3; cell material: Jurkat cells) | pIC50 (MAP4K3; cell material: Jurkat lysate) | pIC50 (UniProt O15530; cell material: Jurkat lysate) | pIC50 (UniProt Q9UEE5; cell material: Jurkat lysate) | pIC50 (UniProt O15530; cell material: Jurkat cells) | pIC50 (UniProt Q9UEE5; cell material: Jurkat cells) |
| --- | --- | --- | --- | --- | --- | --- | --- | --- | --- | --- |
| C#CCNC(=O)c1cc(Nc2cc(C)[nH]n2)nc(N2CCN(Cc3ccc(S(=O)(=O)F)cc3)CC2)n1 | < 4.52 | 4.65 | < 4.52 | < 4.52 | – | – | – | – | – | – |
| C#CCNC(=O)c1cc(Nc2cc(C3CC3)[nH]n2)nc(N2CCN(Cc3ccc(S(=O)(=O)F)cc3)CC2)n1 | < 4.52 | 5.43 | < 4.52 | < 4.52 | 6.02 | 4.77 | < 4.52 | < 4.52 | 5.5 | 5.42 |
| CCNC(=O)c1cc(Nc2cc(C3CC3)[nH]n2)nc(N2CCN(Cc3ccc(S(=O)(=O)F)cc3)CC2)n1 | 4.57 | 5.11 | < 4.52 | < 4.52 | – | – | – | – | – | – |

More lines, main results first:

| pIC50 (DDR2) | pIC50 (MAP4K3; cell material: Lysate mix) | pIC50 (UniProt O15530; cell material: Lysate mix) | pIC50 (UniProt Q9UEE5; cell material: Lysate mix) | Structure (SMILES) | pIC50 (MAP4K3; cell material: Jurkat cells) | pIC50 (MAP4K3; cell material: Jurkat lysate) | pIC50 (UniProt O15530; cell material: Jurkat lysate) | pIC50 (UniProt Q9UEE5; cell material: Jurkat lysate) | pIC50 (UniProt O15530; cell material: Jurkat cells) | pIC50 (UniProt Q9UEE5; cell material: Jurkat cells) |
| --- | --- | --- | --- | --- | --- | --- | --- | --- | --- | --- |
| < 4.52 | < 4.52 | < 4.52 | < 4.52 | Cc1cc(Nc2cc(C(=O)NCCNC(=O)OC3CC/C=C/CCC3)nc(N3CCN(Cc4ccc(S(=O)(=O)F)cc4)CC3)n2)n[nH]1 (centres undefined) | – | – | – | – | – | – |
| < 4.52 | < 4.52 | < 4.52 | < 4.52 | O=C(NCCNC(=O)c1cc(Nc2cc(C3CC3)[nH]n2)nc(N2CCN(Cc3ccc(S(=O)(=O)F)cc3)CC2)n1)OC1CC/C=C/CCC1 (centres undefined) | 5.15 | < 4.52 | < 4.52 | < 4.52 | – | – |
| < 4.52 | < 4.52 | < 4.52 | < 4.52 | CCNC(=O)c1cc(Nc2cc(C)[nH]n2)nc(N2CCN(Cc3ccc(S(=O)(=O)F)cc3)CC2)n1 | – | – | – | – | – | – |
